Assay results published in PubChem BioAssay (NCI).
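Results reflect a 48-hour exposure of cells in 96-well plates to compound at five concentrations. TGI: concentration producing complete growth inhibition.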

Legend:
Assay in all cases: NCI-60 cell line screen, 48 h
CCRF-CEM leukemia = test system: CCRF-CEM leukemia
HCT-116 colon = test system: HCT-116 colon
MDA-MB-231 breast = test system: MDA-MB-231 breast
NCI/ADR-RES ovarian = test system: NCI/ADR-RES ovarian
SK-MEL-28 melanoma = test system: SK-MEL-28 melanoma
SNB-19 CNS = test system: SNB-19 CNS
UO-31 renal = test system: UO-31 renal
HS 578T breast = test system: HS 578T breast
RPMI-8226 leukemia = test system: RPMI-8226 leukemia
SK-OV-3 ovarian = test system: SK-OV-3 ovarian

| SMILES | TGI (CCRF-CEM leukemia) [µM] | TGI (HCT-116 colon) [µM] | TGI (MDA-MB-231 breast) [µM] | TGI (NCI/ADR-RES ovarian) [µM] | TGI (SK-MEL-28 melanoma) [µM] | TGI (SNB-19 CNS) [µM] | TGI (UO-31 renal) [µM] | TGI (HS 578T breast) [µM] | TGI (RPMI-8226 leukemia) [µM] | TGI (SK-OV-3 ovarian) [µM] |
| --- | --- | --- | --- | --- | --- | --- | --- | --- | --- | --- |
| C=CCN1CC2CN=NC2(C#N)C1 (stereo not drawn) | > 100 | > 100 | > 100 | > 100 | > 100 | > 100 | > 100 | – | – | – |
| O=C1CCC2=C(CCC2)N1CCc1ccc2c(c1)OCO2 | > 100 | > 100 | > 100 | > 100 | > 100 | > 100 | > 100 | > 100 | 45.1 | > 100 |
| C=C(C)CC1=C(C(=S)NCCO[Si](C)(C)C(C)(C)C)C(OCC)(OCC)C1=O | > 100 | 50 | 67.5 | > 100 | 34.6 | 38.3 | 35.9 | > 100 | – | 41.4 |
| CC(/C=N/NC1=NCCCCN1)=N\NC1=NCCCCN1 | > 100 | > 100 | > 100 | > 100 | > 100 | > 100 | > 100 | > 100 | > 100 | > 100 |
| N=C(N)n1[nH]c2c(c1=O)CCC2 | > 100 | > 100 | > 100 | > 100 | > 100 | > 100 | > 100 | > 100 | – | > 100 |
| CCOC(=O)/C=C(/C(=O)OCC)n1c(=O)c(C)cn(C2CC(N=[N+]=[N-])C(CO)O2)c1=O (stereo not drawn) | – | > 100 | 46 | > 100 | 84.6 | > 100 | > 100 | > 100 | 49 | > 100 |
| Cc1ccnc(NC(=S)Nc2ccccc2Cl)c1 | > 100 | > 100 | 45.7 | > 100 | > 100 | > 100 | > 100 | > 100 | > 100 | > 100 |
| O=C(NCCO)c1c(O)c2ccccc2[nH]c1=O | > 100 | > 100 | > 100 | > 100 | > 100 | > 100 | > 100 | > 100 | > 100 | – |
| CC(O)(c1ccccc1)c1nccc2ccccc12 (stereo not drawn) | > 100 | > 100 | > 100 | > 100 | > 100 | > 100 | > 100 | > 100 | > 100 | > 100 |
| O=C1c2ccccc2C(=O)N1C(=S)c1ccccc1 | > 100 | > 100 | > 100 | > 100 | > 100 | > 100 | > 100 | > 100 | > 100 | > 100 |
| CCCCNC(=S)/N=C/c1c(O)c2ccccc2oc1=O | – | > 100 | > 100 | > 100 | > 100 | > 100 | > 100 | – | – | > 100 |
| O=C(c1ccc(Cl)cc1)N(C(=S)N1CCN(c2ccccn2)CC1)c1ccccc1 | > 100 | > 100 | – | – | > 100 | > 100 | > 100 | – | > 100 | > 100 |
| C=CCC1NCCC2=C1C(S(=O)(=O)c1ccc(C)cc1)c1ccccc12 (stereo not drawn) | 28.6 | 23.6 | 25.5 | 28.5 | 26.6 | 33.2 | 20.5 | 35.1 | 27.8 | 33.2 |
| O=[N+]([O-])c1cccc2nc3ccccc3c(NCCC[N+]3([O-])CCCCC3)c12 | > 36.5 | 1.04 | 1.16 | > 100 | 5.11 | 9.18 | > 58.6 | 4.02 | 10.5 | 4.58 |
| C[C@]12CCC(=O)C=C1CC[C@@H]1[C@@H]2C(=O)C[C@@]2(C)[C@H]1CC[C@]2(O)C(=O)CO | > 100 | > 100 | – | – | > 100 | > 100 | > 100 | – | > 100 | > 100 |
| COC(=O)c1ccc(C)cc1C1CN=NC12Cc1cc(C)c(C)cc1C2=O (stereo not drawn) | > 100 | > 100 | 81.4 | > 100 | > 100 | > 100 | > 100 | > 100 | > 100 | – |
| Cc1nnc(N)nc1/C=C\c1cccs1 | 70.8 | 35.5 | > 100 | 76.6 | > 100 | > 100 | 40.9 | > 100 | 55.4 | > 100 |
| O=C1C[C@H](c2ccccc2)C2(C(=O)c3ccccc3C2=O)[C@@H](c2ccccc2)C1 | > 100 | – | > 100 | > 100 | > 100 | > 100 | > 100 | > 100 | > 100 | > 100 |
| O=C([C@H](O)[C@@H](O)c1ccc(Br)cc1)C12CC3CC(CC(C3)C1)C2 | > 30.8 | > 51.9 | > 43 | > 57.1 | > 68.6 | > 90.4 | > 55.2 | > 85.9 | > 100 | > 75.2 |
| O=C(Nc1ccc2ccccc2c1)Nn1cnnc1 | > 100 | > 100 | > 100 | – | > 100 | > 100 | > 100 | > 100 | > 100 | > 100 |
| O=C1C=CC2(O[C@@H](Cc3ccccc3)[C@H](Cc3ccccc3)O2)C(SC(=O)c2ccccc2)C1 (stereo partly drawn) | 1.15 | 0.375 | 6.39 | 4.06 | 3.44 | 7.28 | 1.87 | 4.57 | 1.24 | 8.04 |
| CC(=O)c1ccc(NC(=O)/C(=N\NC(N)=O)C(C#N)CC(C)(C)C=O)cc1 (stereo not drawn) | > 100 | > 100 | – | – | > 100 | > 100 | > 100 | – | > 100 | > 100 |
